The values below come from US20040214803A1, “Use of vitamin d3 analogue for the treatment of autoimmune diabetes” (priority 2001, published 2004).

Experiment [1] relates to pancreatic islets of NOD mice. In words: Insulitis scoring and immunohistology of pancreas sections. Type of experiment: in vivo, mouse. Here is the method:
Pancreata were snap-frozen in Tissue Tek (Miles Laboratories, Elkhart, Ind.), and 5-μm-thick sections stained with hematoxilin and eosin. Insulitis score was quantified as follows: 0, no insulitis; 1, peri-insulitis; 2, insulitis in <50% of the islet; 3, insulitis in >50% of the islet. A mean score was calculated from 40-50 islets per individual pancreas. In addition, pancreas cryostat sections were stained with biotinylated mAb directed against CD4, CD8, B220, CD11b (all purchased from PharMingen), or CD11c (N418; American Type Culture Collection, Manassas, Va.), followed by streptavidin-peroxidase conjugate. […]
NOD female mice were treated daily with Compound A (0.03 μg/Kg body weight per os) or vehicle from 8 to 12 or 16 weeks of age and glycemia levels were monitored until 38 weeks of age. […]
FIG. 2. […] The results refer to the mean values ±SE of 8 mice/group, except for 1,25-dihydroxy-16,23Z-diene-26,27-hexafluoro-19-nor vitamin D3-treated mice where three mice were scored. The P values were calculated by Mann-Whitney U test. The severity of the infiltrate is shown in the right panel Islets from the same mice were scored for absence of insulitis (□, peri-insulitis (□), moderate insulitis with <50% infiltration of the islets ( ? ) , and severe insulitis, with >50% of infiltration of the islets (▪). […]

Experiment [2] deals with CD4+ T cells. In words: Intracellular cytokine production by CD4+ cells from treated NOD mice (PMA and ionomycin, flow cytometry). Type of experiment: in vivo, mouse. As to the method: After removal of all visible pancreatic lymph nodes, pancreata were individually digested in 3 ml HBSS containing 1 mg/ml collagenase IV (Sigma), by shaking (200 rpm) at 37° C. for 15 min. Single cell suspensions were collected after diluting the enzyme with ice-cold HBSS containing 5% FCS (FETAL CALF SERUM) and removal of the aggregates by settling for 2 min on ice. Aggregates were further digested with collagenase IV at 0.5 mg/ml for 10 min, and at 0.25 mg/ml for 6 min. Single cell suspensions were washed three times, and passed over a MASC Pre-separation filter (Miltenyi Biotec) to remove cell aggragetes and clumps. Single cell suspensions were incubated with anti-CD4 mAb-coated Microbeads (Miltenyi Biotec) and applied onto Mini-MACS columns (Miltenyi Biotec). This procedure yielded a positive fraction containing CD4^+ cells. Immediately after purification cells were stimulated with PMA (PHORBOL MYRISTIC ACETATE) and ionomycin in complete medium, fixed, and stained the next day for intracellular production of cytokines.
Cells were stained for IFN-γ, IL-4, IL-10 and IL-2 as previously described (Trembleau, S., et al. Eur J Immunol. 1997,27:2330-2339). Reagents for intracytoplasmic staining contained 1% FCS, 0.5% saponin (Sigma), and 0.1% sodium azide. All incubations were performed at room temperature. Cells were washed, pre-incubated for 10 min with PBS(phosphate buffered saline)/FCS/saponin, and then incubated with FITC(fluorescein isothiocyanate)-labeled rat anti-mouse IFN-γ (XMG1.2) and PE (phycoerythrin)-labeled rat anti-IL-2 (JE56-5H4), rat anti-mouse IL-4 (11B11), or PE-labeled rat anti-mouse IL-10 (JES5-16E3). Isotype controls were FITC- and PE-labeled rat IgG1 (R3-34). After 30 min, cells were washed twice with PBS/FCS/saponin and then with PBS containing 5% of FCS without saponin to allow membrane closure. The cell surface was then stained with CyChrome-labeled anti-CD4 (L3T4) for 15 min at room temperature. Analysis was performed with a FACScan flow cytometer (Becton Dickinson, Mountain View, Calif.) equipped with CellQuest software, and 10,000 events were acquired.
To identify mechanisms accounting for the reduced type 1 DM development in 1,25-dihydroxy-16,23Z-diene-26,27-hexafluoro-19-nor vitamin D3-treated NOD mice, the cytokines produced by CD4^+ T cells in the spleen, pancreatic lymph node and pancreas-infiltrating cells of […] NOD mice, treated from 8 to 16 weeks of age with Compound A or vehicle were analyzed.
FIG. 4. (page 4/9) Cytokine production by CD4^+ cells from spleen, pancreatic lymph node and pancreas-infiltrating cells. Spleen (A), pancreatic lymph node (B) and pancreas-infiltrating (C) CD4^+ cells were obtained from untreated 8 week-old or 20 week-old NOD mice treated 5×/week p.o. from 8 to 16 weeks of age with vehicle or with 0.03 μg/Kg Compound A. Positively selected CD4^+ cells (2×10^5 cells/well) were stimulated with PMA and ionomycin and analyzed by flow cytometry for IFN-γ (abscissa) and IL-2, IL-4 or IL-10 (ordinate) production. Acquisition was performed on CD4^+ cells. Percentage of positive cells, set according to the isotype-matched controls (not shown), are shown in the top corner of each quadrant. Dot plots are from a representative experiment out of four performed. Bar graphs represent the mean ±SE of four independent experiments using pooled cells from 3 to 4 mice. The P values were calculated by Mann-Whitney U test (* indicates P<0.05 vs. 8 week-old NOD mice).
(In flow cytometry, cells or beads pass a laser one at a time.)

[3] abbreviates: CD4+ T cells from pancreatic lymph nodes, vs 30 week-old vehicle-treated or 8 week-old NOD mice.

`C[C@H](C/C=C\C(O)(C(F)(F)F)C(F)(F)F)C1=CC[C@H]2/C(=C/C=C3C[C@@H](O)C[C@H](O)C3)CCC[C@]12C` [Compound A, 1,25-dihydroxy-16,23Z-diene-26,27-hexafluoro-19-nor vitamin D3]: the “functional islet β cells (positive staining for insulin)” value in experiment [1] (at 30 weeks of age, compared to vehicle-treated NOD mice at 30 weeks) is listed as “more frequent”. The “score and severity of insulitis” value in experiment [1] (treated 8 to 16 weeks, analysed at 30 weeks of age, compared to 8 weeks old NOD mice) is reported as “similar”. Also, in experiment [2] (setting [3]), the “reduction of IFN-γ-producing cells” value is 3 fold and the “reduction of IL-2 producing cells” value is reported as 10 fold. The IL-4-producing cells in experiment [2] (CD4+ cells, means of three experiments, 0.7±0.2% in 8 weeks old, 0.9±0.2% vehicle) was found to be 2.5±0.3%. Also, the IFN-γ-producing cells result in experiment [2] (CD4+ pancreas-infiltrating cells, compared with vehicle-treated mice) is “similarly lower”. Further, the “IL-10-producing CD4+ cells” value in experiment [2] (mouse, in vivo) is “No increase”.
